Results taken from US20230193265A1, “CUG REPEAT SEQUENCE BINDING AGENT” (OSAKA UNIVERSITY, priority 2020, published 2023).

Experiments:
[1] = system: r(CUG)9; experiment: Surface plasmon resonance (SPR) binding to immobilized r(CUG)9 RNA
Description: A streptavidin-coated sensor chip (SA chip, GE Healthcare) was washed with HBS-EP^+ buffer (10 mM HEPES, pH 7.4, 0.15 M NaCl, 3 mM EDTA and 0.05% v/v Surfactant P20) for 6 minutes, and then activated with three consecutive 1-min injection of 30 μL of activation buffer (50 mM NaOH and 1 M NaCl).
5′-Biotinylated r(CUG)9 (Thermo Fisher Scientific Inc.) was diluted to 0.1 μM with HEPES buffer (10 mM HEPES and 500 mM NaCl) and flowed onto the sensor chip until immobilized response units (RU) reaching around 400 RU. The amount of r(CUG)9 immobilized on the surface of the sensor chip was at 401 RU.
Surface plasmon resonance was measured using BIAcore T200 SPR system (GE Healthcare).
r(CUG)9 used for the SPR assay has the sequence as shown below.
For single-cycle kinetic (SCK) analysis, the surface of the sensor chip was conditioned by 120 sec exposure of continuous flow of HBS-EP^+ buffer at a flow rate of 30 μL/min at 25° C. Compound JM608 was dissolved in HBS-EP^+ buffer at a concentration of 0.063 μM, 0.125 μM, 0.25 μM, 0.50 μM and 1.0 μM, and the resulting solutions were sequentially injected on the sensor surface for 60 seconds each at a flow rate of 30 μL/min per cycle.
The obtained SPR response curves were analyzed using BIAcore T200 evaluation software (version 2.0).
SPR measurement was performed in the same manner as in Example 1 except that compound JM642 was used in place of compound JM608 and that solutions of compound JM642 at concentrations of 6 nM, 13 nM, 25 nM, 50 nM and 100 nM were sequentially injected.
The resonance unit for the compound at a concentration of 25 nM in Example 1 was calculated from the measured value (1.9 RU) for the compound at 63 nM using the formula: 1.9 RU×(25 nM/63 nM).

[2] = system: Clcn1 (muscle-specific chloride channel gene) Exon 7a splicing; experiment: Improvement of Clcn1 splicing abnormality in DM1 mouse model; assay type: in vivo, homozygous HSA^LR transgenic mice; settings: 20 mg/kg/day, daily intraperitoneal administration for five days; rectus femoris (quadriceps)
Description: (§1) Gender- and age-matched homozygous HSA^LR transgenic mice of line 20b (FVB inbred background) (Science 2000, 289, 1769-1772) (<3 months old) were treated with JM642 at indicated doses (10 mg/kg/day and 20 mg/kg/day) for five days by daily intraperitoneal administration. After treatments, the rectus femoris (quadriceps) were obtained for splicing analysis. Total RNA extraction from the tissue, cDNA synthesis and polymerase chain reaction (PCR) were carried out according to Ann. Clin. Transl. Neurol. 2016, 3, 42-54. The PCR products were separated by agarose gel electrophoresis, and the gel was stained with GelRed (Biotium). The gel was imaged using a Typhoon laser fluorimager (GE Healthcare) and the gel bands were quantified using ImageQuant (GE Healthcare).
(§2) For normal mice and mice treated in the same manner as above except that JM642 was not administered, total RNA extraction, cDNA synthesis, PCR and electrophoresis of the PCR products were performed in the same manner as above.
Evaluation was performed in the same manner as in Example 3 except that Clcn1 was studied in place of Atp2a1.
Evaluation was performed in the same manner as in Example 4 except that the compound (DDAP) shown above synthesized in accordance with the method described in non-patent literature 3 was used in place of compound JM642.

[3] = system: Atp2a1 (sarcoplasmic reticulum Ca2+/ATPase gene) Exon 22 splicing; experiment: Improvement of Atp2a1 splicing abnormality in DM1 mouse model; assay type: in vivo, homozygous HSA^LR transgenic mice; settings: 20 mg/kg/day, daily intraperitoneal administration for five days; rectus femoris (quadriceps)
Description: as §1, §2
Evaluation was performed in the same manner as in Example 3 except that the compound (DDAP) shown below synthesized in accordance with the method described in non-patent literature 3 was used in place of compound JM642.

Compound | Resonance unit (RU) at concentration of 25 nM ([1]; 25 nM compound, r(CUG)9 immobilized at 401 RU, calculated from measured value at 63 nM: 1.9 RU×(25 nM/63 nM)) [RU] | Resonance unit, measured value at 63 nM ([1]; 63 nM compound, r(CUG)9 immobilized at 401 RU) [RU] | binding capacity to the CUG repeat sequence ([1]; SPR, FIGS. 1 and 2 and Table 2) | skipping rate of Exon 7a [2] [%] | inclusion rate of Exon 22 [3] [%]
NCCCNc1nc(NC(=O)OCCCN)cc2c(-c3ccnc(N4CCNCC4)c3)cccc12 [JM608, 3-aminopropyl (1-((3-aminopropyl)amino)-5-(2-(piperazin-1-yl)pyridin-4-yl)isoquinolin-3-yl)carbamate] | 0.8 | 1.9 | observed | – | –
NCCCNc1nc(NC(=O)OCCCNC(=O)CCNCCC(=O)NCCCOC(=O)Nc2cc3c(-c4ccnc(N5CCNCC5)c4)cccc3c(NCCCN)n2)cc2c(-c3ccnc(N4CCNCC4)c3)cccc12 [JM642, ((3,3′-azanediylbis(propanoyl))bis(azanediyl))bis(propane-3,1-diyl)bis((1-((3-aminopropyl)amino)-5-(2-(piperazin-1-yl)pyridin-4-yl)isoquinolin-3-yl)carbamate)] | – | – | – | 70 | 70
